Activity calls are given as the source filed them. The calls are words filed in the database; no cut-off is given here.
Assays:
[1] = system: Macrophage cell line; assay: Cytotoxicity against human PBMC-differentiated macrophages treated for 24 hrs followed by compound washout and measured after 48 hrs by MTT assay; format: cell-based
[2] = system: Macrophage cell line; assay: Antiinflammatory activity in human PBMC-differentiated macrophages assessed as inhibition of LPS-induced prostaglandin production at 0.01 to 10 uM measured after 24 hrs by ELISA; format: functional, cell-based
[3] = system: Macrophage cell line; assay: Induction of TNFalpha production in human PBMC-differentiated macrophages after 24 hrs by ELISA; format: cell-based
[4] = system: Macrophage cell line; assay: Induction of IL-8 production in human PBMC-differentiated macrophages after 24 hrs by ELISA; format: cell-based
[5] = system: Macrophage cell line; assay: Induction of IL-1beta production in human PBMC-differentiated macrophages after 24 hrs by ELISA; format: cell-based
[6] = system: Macrophage cell line; assay: Induction of prostaglandin production in human PBMC-differentiated macrophages after 24 hrs by ELISA; format: cell-based
[7] = system: Staphylococcus aureus; assay: Toxicity in Staphylococcus aureus ATCC 33592 up to 32 uM measured after 16 hrs; format: organism-based
[8] = system: Streptococcus pyogenes; assay: Toxicity in Streptococcus pyogenes ATCC 14289 up to 32 uM measured after 16 hrs; format: organism-based
[9] = system: Enterococcus faecium; assay: Toxicity in Enterococcus faecium ATCC 700221 up to 32 uM measured after 16 hrs; format: organism-based; conditions: in vitro
[10] = system: Escherichia coli; assay: Toxicity in Escherichia coli ATCC 43894 up to 32 uM measured after 16 hrs; format: organism-based
[11] = system: Staphylococcus aureus; assay: Potentiation of methicillin-induced antibacterial activity against Staphylococcus aureus ATCC 33592 assessed as minimum modulatory concentration up to 32 uM measured after 16 hrs in presence of MIC/4 methicillin; format: functional; conditions: ATCC 33592, 16 h, read-out: MEC
[12] = system: Staphylococcus aureus; assay: Potentiation of tetracycline-induced antibacterial activity against Staphylococcus aureus ATCC 33592 assessed as minimum modulatory concentration up to 32 uM measured after 16 hrs in presence of MIC/4 tetracycline; format: functional; conditions: ATCC 33592, 16 h, read-out: MEC
[13] = system: Streptococcus pyogenes; assay: Potentiation of methicillin-induced antibacterial activity against Streptococcus pyogenes ATCC 14289 assessed as minimum modulatory concentration up to 32 uM measured after 16 hrs in presence of MIC/4 methicillin; format: functional; conditions: ATCC 14289, 16 h, read-out: MEC
[14] = system: Streptococcus pyogenes; assay: Potentiation of ciprofloxacin-induced antibacterial activity against Streptococcus pyogenes ATCC 14289 assessed as minimum modulatory concentration up to 32 uM measured after 16 hrs in presence of MIC/4 ciprofloxacin; format: functional; conditions: ATCC 14289, 16 h, read-out: MEC
[15] = system: Streptococcus pyogenes; assay: Potentiation of tetracycline-induced antibacterial activity against Streptococcus pyogenes ATCC 14289 assessed as minimum modulatory concentration up to 32 uM measured after 16 hrs in presence of MIC/4 tetracycline; format: functional; conditions: ATCC 14289, 16 h, read-out: MEC
[16] = system: Klebsiella pneumoniae; assay: Potentiation of methicillin-induced antibacterial activity against Klebsiella pneumoniae ATCC 13883 assessed as minimum modulatory concentration up to 32 uM measured after 16 hrs in presence of MIC/4 methicillin; format: functional; conditions: ATCC 13883, 16 h, read-out: MEC
[17] = system: Klebsiella pneumoniae; assay: Potentiation of geneticin-induced antibacterial activity against Klebsiella pneumoniae ATCC 13883 assessed as minimum modulatory concentration up to 32 uM measured after 16 hrs in presence of MIC/4 geneticin; format: functional; conditions: ATCC 13883, 16 h, read-out: MEC
[18] = system: Klebsiella pneumoniae; assay: Potentiation of ciprofloxacin-induced antibacterial activity against Klebsiella pneumoniae ATCC 13883 assessed as minimum modulatory concentration up to 32 uM measured after 16 hrs in presence of MIC/4 ciprofloxacin; format: functional; conditions: ATCC 13883, 16 h, read-out: MEC
[19] = system: Klebsiella pneumoniae; assay: Potentiation of tetracycline-induced antibacterial activity against Klebsiella pneumoniae ATCC 13883 assessed as minimum modulatory concentration up to 32 uM measured after 16 hrs in presence of MIC/4 tetracycline; format: functional; conditions: ATCC 13883, 16 h, read-out: MEC
[20] = system: Klebsiella pneumoniae; assay: Potentiation of erythromycin-induced antibacterial activity against Klebsiella pneumoniae ATCC 13883 assessed as minimum modulatory concentration up to 32 uM measured after 16 hrs in presence of MIC/4 erythromycin; format: functional; conditions: ATCC 13883, 16 h, read-out: MEC
[21] = system: Enterococcus faecium; assay: Potentiation of geneticin-induced antibacterial activity against Enterococcus faecium ATCC 700221 assessed as minimum modulatory concentration up to 32 uM measured after 16 hrs in presence of MIC/4 geneticin; format: functional; conditions: ATCC 700221, 16 h, read-out: MEC
[22] = system: Enterococcus faecium; assay: Potentiation of ciprofloxacin-induced antibacterial activity against Enterococcus faecium ATCC 700221 assessed as minimum modulatory concentration up to 32 uM measured after 16 hrs in presence of MIC/4 ciprofloxacin; format: functional; conditions: ATCC 700221, 16 h, read-out: MEC
[23] = system: Enterococcus faecium; assay: Potentiation of tetracycline-induced antibacterial activity against Enterococcus faecium ATCC 700221 assessed as minimum modulatory concentration up to 32 uM measured after 16 hrs in presence of MIC/4 tetracycline; format: functional; conditions: ATCC 700221, 16 h, read-out: MEC
[24] = system: Enterococcus faecium; assay: Potentiation of erythromycin-induced antibacterial activity against Enterococcus faecium ATCC 700221 assessed as minimum modulatory concentration up to 32 uM measured after 16 hrs in presence of MIC/4 erythromycin; format: functional; conditions: ATCC 700221, 16 h, read-out: MEC
[25] = system: Pseudomonas aeruginosa; assay: Potentiation of methicillin-induced antibacterial activity against Pseudomonas aeruginosa ATCC BAA-2108 assessed as minimum modulatory concentration up to 32 uM measured after 16 hrs in presence of MIC/4 methicillin; format: functional; conditions: ATCC BAA-2108, 16 h, read-out: MEC
[26] = system: Pseudomonas aeruginosa; assay: Potentiation of geneticin-induced antibacterial activity against Pseudomonas aeruginosa ATCC BAA-2108 assessed as minimum modulatory concentration up to 32 uM measured after 16 hrs in presence of MIC/4 geneticin; format: functional; conditions: ATCC BAA-2108, 16 h, read-out: MEC
[27] = system: Pseudomonas aeruginosa; assay: Potentiation of ciprofloxacin-induced antibacterial activity against Pseudomonas aeruginosa ATCC BAA-2108 assessed as minimum modulatory concentration up to 32 uM measured after 16 hrs in presence of MIC/4 ciprofloxacin; format: functional; conditions: ATCC BAA-2108, 16 h, read-out: MEC
[28] = system: Pseudomonas aeruginosa; assay: Potentiation of tetracycline-induced antibacterial activity against Pseudomonas aeruginosa ATCC BAA-2108 assessed as minimum modulatory concentration up to 32 uM measured after 16 hrs in presence of MIC/4 tetracycline; format: functional; conditions: ATCC BAA-2108, 16 h, read-out: MEC
[29] = system: Pseudomonas aeruginosa; assay: Potentiation of erythromycin-induced antibacterial activity against Pseudomonas aeruginosa ATCC BAA-2108 assessed as minimum modulatory concentration up to 32 uM measured after 16 hrs in presence of MIC/4 erythromycin; format: functional; conditions: ATCC BAA-2108, 16 h, read-out: MEC
[30] = system: Escherichia coli; assay: Potentiation of methicillin-induced antibacterial activity against Escherichia coli ATCC 43894 assessed as minimum modulatory concentration up to 32 uM measured after 16 hrs in presence of MIC/4 methicillin; format: functional; conditions: ATCC 43894, 16 h, read-out: MEC
[31] = system: Escherichia coli; assay: Potentiation of geneticin-induced antibacterial activity against Escherichia coli ATCC 43894 assessed as minimum modulatory concentration up to 32 uM measured after 16 hrs in presence of MIC/4 geneticin; format: functional; conditions: ATCC 43894, 16 h, read-out: MEC
[32] = system: Escherichia coli; assay: Potentiation of ciprofloxacin-induced antibacterial activity against Escherichia coli ATCC 43894 assessed as minimum modulatory concentration up to 32 uM measured after 16 hrs in presence of MIC/4 ciprofloxacin; format: functional; conditions: ATCC 43894, 16 h, read-out: MEC
[33] = system: Escherichia coli; assay: Potentiation of tetracycline-induced antibacterial activity against Escherichia coli ATCC 43894 assessed as minimum modulatory concentration up to 32 uM measured after 16 hrs in presence of MIC/4 tetracycline; format: functional; conditions: ATCC 43894, 16 h, read-out: MEC
[34] = system: Escherichia coli; assay: Potentiation of erythromycin-induced antibacterial activity against Escherichia coli ATCC 43894 assessed as minimum modulatory concentration up to 32 uM measured after 16 hrs in presence of MIC/4 erythromycin; format: functional; conditions: ATCC 43894, 16 h, read-out: MEC

Compound	IC50 [1] [µM]	inhibition [2]	Activity [3]	Activity [4]	Activity [5]	Activity [6]	Activity [7]	Activity [8]	Activity [9]	Activity [10]	minimal effective concentration [11] [µM]	minimal effective concentration [12] [µM]	minimal effective concentration [13] [µM]	minimal effective concentration [14] [µM]	minimal effective concentration [15] [µM]	minimal effective concentration [16] [µM]	minimal effective concentration [17] [µM]	minimal effective concentration [18] [µM]	minimal effective concentration [19] [µM]	minimal effective concentration [20] [µM]	further results
O=C(O)c1cc(-c2ccccc2)ncc1O	84.5	inactive	Non-Toxic	Non-Toxic	Non-Toxic	Non-Toxic	Non-Toxic	Non-Toxic	Non-Toxic	Non-Toxic	16	> 32	16	> 32	> 32	> 32	> 32	> 32	> 32	> 32	minimal effective concentration [21]: > 32 µM; minimal effective concentration [22]: > 32 µM; minimal effective concentration [23]: > 32 µM; minimal effective concentration [24]: > 32 µM; minimal effective concentration [25]: > 32 µM; minimal effective concentration [26]: > 32 µM; minimal effective concentration [27]: > 32 µM; minimal effective concentration [28]: > 32 µM; minimal effective concentration [29]: > 32 µM; minimal effective concentration [30]: > 32 µM; minimal effective concentration [31]: > 32 µM; minimal effective concentration [32]: > 32 µM; minimal effective concentration [33]: > 32 µM; minimal effective concentration [34]: > 32 µM
O=C(O)c1cnc(-c2ccccc2)c(O)c1	> 100	inactive	Non-Toxic	Non-Toxic	Non-Toxic	Non-Toxic	Non-Toxic	Non-Toxic	Non-Toxic	Non-Toxic	0.5	0.25	1	> 32	4	> 32	> 32	> 32	> 32	> 32	minimal effective concentration [21]: 8 µM; minimal effective concentration [22]: > 32 µM; minimal effective concentration [23]: 1 µM; minimal effective concentration [24]: 4 µM; minimal effective concentration [25]: 16 µM; minimal effective concentration [26]: > 32 µM; minimal effective concentration [27]: 4 µM; minimal effective concentration [28]: > 32 µM; minimal effective concentration [29]: 4 µM; minimal effective concentration [30]: > 32 µM; minimal effective concentration [31]: > 32 µM; minimal effective concentration [32]: > 32 µM; minimal effective concentration [33]: > 32 µM; minimal effective concentration [34]: > 32 µM
